Values of other authors as cited in US8058278B2, “Methods of enhancing mucosal hydration and mucosal clearance by treatment with sodium channel blockers and osmolytes” (Parion Sciences, Inc., priority 2006, dated 2011).

Tested on: water permeability of airways
Conditions: amiloride used concurrently with hypertonic saline

N=C(N)NC(=O)c1nc(Cl)c(N)nc1N [Amiloride, amiloride]
effect on water permeability of airways: block the water permeability of airways
